Peptide text beside a SMILES is read from it.
System: guinea pig trachea smooth muscle
Assay: Bronchodilator (relaxant) effect on isolated guinea pig tracheal rings
Assay type: cell-based
Settings: for Relative Potency: guinea pig trachea, relative to VIP = 100%; for EC50: guinea pig tracheal rings, relaxation as % of maximum response to VIP 10^-6 M, three tissues pooled, linear regression, read-out: EC50 (M), agonist activity, bronchodilator effect
From the text: The bronchodilatory effect of VIP analogs was studied in a model utilizing guinea pig trachea. Wasserman, M. A. et al. "Comparative In Vitro Tracheal Relaxant Effects of Porcine and Hen VIP" in Vasoactive Intestinal Peptide ed. Said, S.I., Raven Press (New York, 1982).
All tissues were taken from male albino guinea pigs weighing 400-600 g, anesthetized with urethane 2 g/kg i.p. After exsanguination the trachea was removed and divided into four ring segments (3 mm length). Each ring was suspended by two 30 guage stainless steel wires in a 10 ml jacket tissue bath and attached via 4-0 silk thread to a Grass force displacement transducer (model FT03C, Grass Instrument Co., Quincy, MA), for isometric recording of tension. The smooth muscle was bathed in modified Krebs solution of the following composition: NaCl, 120 mM; KCl, 4.7 mM; CaCl2, 2.5 mM; MgSO4.7H2 O; 1.2 mM; NaHCO3, 25 mM; KH2 PO4 monobasic, 1.2 mM; and dextrose, 10 mM. Tissue baths were maintained at 37.5° C. and constantly bubbled with 95% O2 and 5% CO2. Responses were recorded on an 8 channel and 4 channel Hewlett-Packard (model 7702B and 7754A, respectively) recorder (Hewlett Packard, Paramus, NJ). Tracheal rings were placed under a resting tension of 1.5 g which was determined to be at or near optimal in preliminary experiments. Frequent readjustments of tension were required during the 60 min. stabilization period which followed. Tissues were rinsed at 15 min. intervals.
Cumulative concentration response curves were obtained for each tissue by successive […] in the bath concentration of VIP or potential VIP agonists according to the method of VanRossum J. M., Arch. Int Pharmacodyn, 143, 299-330 (1963). Only one cummulative dose response curve was obtained on a single piece of tissue. To minimize variability between tissues, relaxant responses are expressed as a percentage of the maximum response obtainable to VIP (10^-6 M=100%) added at the end of the concentration response curve. Responses obtained from three tissues were pooled and EC50 values were determined by linear regression.

Structure (SMILES) | Relative Potency | EC50
CCCC[C@H](NC(=O)[C@H](CCC(N)=O)NC(=O)[C@H](CCCCN)NC(=O)[C@H](CCCNC(=N)N)NC(=O)[C@H](CC(C)C)NC(=O)[C@H](CCCNC(=N)N)NC(=O)[C@@H](NC(=O)[C@H](Cc1ccc(O)cc1)NC(=O)[C@H](C)NC(=O)[C@H](CC(=O)O)NC(=O)[C@@H](NC(=O)[C@H](Cc1ccccc1)NC(=O)[C@@H](NC(=O)[C@H](C)NC(=O)[C@H](CC(=O)O)NC(=O)[C@H](CO)NC(=O)[C@@H](N)Cc1c[nH]cn1)C(C)C)[C@@H](C)O)[C@@H](C)O)C(=O)N[C@@H](C)C(=O)N[C@H](C(=O)N[C@@H](CCCCN)C(=O)N[C@@H](CCCCN)C(=O)N[C@@H](Cc1ccc(O)cc1)C(=O)N[C@@H](CC(C)C)C(=O)N[C@@H](CC(N)=O)C(=O)N[C@@H](CO)C(=O)N[C@H](C(=O)N[C@@H](CC(C)C)C(=O)N[C@@H](CC(N)=O)C(N)=O)[C@@H](C)CC)C(C)C [(Ala^9, Nle^17)--VIP, (Ala^9, Nle^17)VIP] (HELM PEPTIDE1{H.S.D.A.V.F.T.D.A.Y.T.R.L.R.K.Q.[Nle].A.V.K.K.Y.L.N.S.I.L.N.[am]}$$$$V2.0) | 100% | 1e-08 M
CCCC[C@H](NC(=O)[C@H](CCC(N)=O)NC(=O)[C@H](CCCCN)NC(=O)[C@H](CCCCN)NC(=O)[C@H](CC(C)C)NC(=O)[C@H](CCCCN)NC(=O)[C@@H](NC(=O)[C@H](Cc1ccc(O)cc1)NC(=O)[C@H](CC(N)=O)NC(=O)[C@H](CC(=O)O)NC(=O)[C@@H](NC(=O)[C@H](Cc1ccccc1)NC(=O)[C@@H](NC(=O)[C@H](C)NC(=O)[C@H](CC(=O)O)NC(=O)[C@H](CO)NC(=O)[C@@H](N)Cc1c[nH]cn1)C(C)C)[C@@H](C)O)[C@@H](C)O)C(=O)N[C@@H](C)C(=O)N[C@H](C(=O)N[C@@H](CCCCN)C(=O)N[C@@H](CCCCN)C(=O)N[C@@H](Cc1ccc(O)cc1)C(=O)N[C@@H](CC(C)C)C(=O)N[C@@H](CC(N)=O)C(=O)N[C@@H](CO)C(=O)N[C@H](C(=O)N[C@@H](CC(C)C)C(=O)N[C@H](C(N)=O)[C@@H](C)O)C(C)C)C(C)C [(Lys^12, Lys^14, Nle^17, Val^26, Thn^28, (Lys^12, Lys^14, Nle^17, Val^26, Thr^28)VIP] (HELM PEPTIDE1{H.S.D.A.V.F.T.D.N.Y.T.K.L.K.K.Q.[Nle].A.V.K.K.Y.L.N.S.V.L.T.[am]}$$$$V2.0) | 143% | 7e-09 M
CCCC[C@H](NC(=O)[C@H](CCC(N)=O)NC(=O)[C@H](CCCCN)NC(=O)[C@H](CCCNC(=N)N)NC(=O)[C@H](CC(C)C)NC(=O)[C@H](CCCCN)NC(=O)[C@@H](NC(=O)[C@H](Cc1ccc(O)cc1)NC(=O)[C@H](CC(N)=O)NC(=O)[C@H](CC(=O)O)NC(=O)[C@@H](NC(=O)[C@H](Cc1ccccc1)NC(=O)[C@@H](NC(=O)[C@H](C)NC(=O)[C@H](CC(=O)O)NC(=O)[C@H](CO)NC(=O)[C@@H](N)Cc1c[nH]cn1)C(C)C)[C@@H](C)O)[C@@H](C)O)C(=O)N[C@@H](C)C(=O)N[C@H](C(=O)N[C@@H](CCCCN)C(=O)N[C@@H](CCCCN)C(=O)N[C@@H](Cc1ccc(O)cc1)C(=O)N[C@@H](CC(C)C)C(=O)N[C@@H](CC(N)=O)C(=O)N[C@@H](CO)C(=O)N[C@H](C(=O)N[C@@H](CC(C)C)C(=O)N[C@H](C(N)=O)[C@@H](C)O)C(C)C)C(C)C [(Lys^12, Nle^17, Val^26, Thr^28)--VIP, (Lys^12, Nle^17, Val^26, Thr^28)VIP] (HELM PEPTIDE1{H.S.D.A.V.F.T.D.N.Y.T.K.L.R.K.Q.[Nle].A.V.K.K.Y.L.N.S.V.L.T.[am]}$$$$V2.0) | 286% | 3.5e-09 M
CCCC[C@H](NC(=O)[C@H](CCC(N)=O)NC(=O)[C@H](CCCCN)NC(=O)[C@H](CCCCN)NC(=O)[C@H](CC(C)C)NC(=O)[C@H](CCCNC(=N)N)NC(=O)[C@@H](NC(=O)[C@H](Cc1ccc(O)cc1)NC(=O)[C@H](CC(N)=O)NC(=O)[C@H](CC(=O)O)NC(=O)[C@@H](NC(=O)[C@H](Cc1ccccc1)NC(=O)[C@@H](NC(=O)[C@H](C)NC(=O)[C@H](CC(=O)O)NC(=O)[C@H](CO)NC(=O)[C@@H](N)Cc1c[nH]cn1)C(C)C)[C@@H](C)O)[C@@H](C)O)C(=O)N[C@@H](C)C(=O)N[C@H](C(=O)N[C@@H](CCCCN)C(=O)N[C@@H](CCCCN)C(=O)N[C@@H](Cc1ccc(O)cc1)C(=O)N[C@@H](CC(C)C)C(=O)N[C@@H](CC(N)=O)C(=O)N[C@@H](CO)C(=O)N[C@H](C(=O)N[C@@H](CC(C)C)C(=O)N[C@@H](CC(N)=O)C(N)=O)[C@@H](C)CC)C(C)C [(Lys^14, Nle^17)--VIP, (Lys^14, Nle^17)VIP] (HELM PEPTIDE1{H.S.D.A.V.F.T.D.N.Y.T.R.L.K.K.Q.[Nle].A.V.K.K.Y.L.N.S.I.L.N.[am]}$$$$V2.0) | 172% | 5.8e-09 M
CCCC[C@H](NC(=O)[C@H](CCC(N)=O)NC(=O)[C@H](CCCCN)NC(=O)[C@H](CCCNC(=N)N)NC(=O)[C@H](CC(C)C)NC(=O)[C@H](CCCNC(=N)N)NC(=O)[C@@H](NC(=O)[C@H](Cc1ccc(O)cc1)NC(=O)[C@H](CC(N)=O)NC(=O)[C@H](CC(=O)O)NC(=O)[C@@H](NC(=O)[C@H](Cc1ccccc1)NC(=O)[C@@H](NC(=O)[C@H](C)NC(=O)[C@H](CC(=O)O)NC(=O)[C@H](CO)NC(=O)[C@@H](N)Cc1c[nH]cn1)C(C)C)[C@@H](C)O)[C@@H](C)O)C(=O)N[C@@H](C)C(=O)N[C@H](C(=O)N[C@@H](CCCCN)C(=O)N[C@@H](CCCCN)C(=O)N[C@@H](Cc1ccc(O)cc1)C(=O)N[C@@H](CC(C)C)C(=O)N[C@H](C(=O)N[C@@H](CO)C(=O)N[C@H](C(=O)N[C@@H](CC(C)C)C(=O)N[C@@H](CC(N)=O)C(N)=O)[C@@H](C)CC)[C@@H](C)O)C(C)C [(Nle^17, Thr^24)--VIP, (Nle^17, Thr^24)VIP] (HELM PEPTIDE1{H.S.D.A.V.F.T.D.N.Y.T.R.L.R.K.Q.[Nle].A.V.K.K.Y.L.T.S.I.L.N.[am]}$$$$V2.0) | 125% | 8e-09 M
CCCC[C@H](NC(=O)[C@H](CCC(N)=O)NC(=O)[C@H](CCCCN)NC(=O)[C@H](CCCNC(=N)N)NC(=O)[C@H](CC(C)C)NC(=O)[C@H](CCCNC(=N)N)NC(=O)[C@@H](NC(=O)[C@H](Cc1ccc(O)cc1)NC(=O)[C@H](CC(N)=O)NC(=O)[C@H](CC(=O)O)NC(=O)[C@@H](NC(=O)[C@H](Cc1ccccc1)NC(=O)[C@@H](NC(=O)[C@H](C)NC(=O)[C@H](CC(=O)O)NC(=O)[C@H](CO)NC(=O)[C@@H](N)Cc1c[nH]cn1)C(C)C)[C@@H](C)O)[C@@H](C)O)C(=O)N[C@@H](C)C(=O)N[C@H](C(=O)N[C@@H](CCCCN)C(=O)N[C@@H](CCCCN)C(=O)N[C@@H](Cc1ccc(O)cc1)C(=O)N[C@@H](CC(C)C)C(=O)N[C@@H](CC(N)=O)C(=O)N[C@H](C(=O)N[C@H](C(=O)N[C@@H](CC(C)C)C(=O)N[C@@H](CC(N)=O)C(N)=O)[C@@H](C)CC)[C@@H](C)O)C(C)C [(Nle^17, Thr^25)--VIP, (Nle^17, Thr^25)VIP] (HELM PEPTIDE1{H.S.D.A.V.F.T.D.N.Y.T.R.L.R.K.Q.[Nle].A.V.K.K.Y.L.N.T.I.L.N.[am]}$$$$V2.0) | 101% | 9.9e-09 M
CCCC[C@H](NC(=O)[C@H](CCC(N)=O)NC(=O)[C@H](CCCCN)NC(=O)[C@H](CCCNC(=N)N)NC(=O)[C@H](CC(C)C)NC(=O)[C@H](CCCNC(=N)N)NC(=O)[C@@H](NC(=O)[C@H](Cc1ccc(O)cc1)NC(=O)[C@H](CC(N)=O)NC(=O)[C@H](CC(=O)O)NC(=O)[C@@H](NC(=O)[C@H](Cc1ccccc1)NC(=O)[C@@H](NC(=O)[C@H](C)NC(=O)[C@H](CC(=O)O)NC(=O)[C@H](CO)NC(=O)[C@@H](N)Cc1c[nH]cn1)C(C)C)[C@@H](C)O)[C@@H](C)O)C(=O)N[C@@H](C)C(=O)N[C@H](C(=O)N[C@@H](CCCCN)C(=O)N[C@@H](CCCCN)C(=O)N[C@@H](Cc1ccc(O)cc1)C(=O)N[C@@H](CC(C)C)C(=O)N[C@@H](CC(N)=O)C(=O)N[C@@H](CO)C(=O)N[C@H](C(=O)N[C@@H](CC(C)C)C(=O)N[C@H](C(N)=O)[C@@H](C)O)[C@@H](C)CC)C(C)C [(Nle^17, Thr^28)--VIP, (Nle^17, Thr^28)VIP] (HELM PEPTIDE1{H.S.D.A.V.F.T.D.N.Y.T.R.L.R.K.Q.[Nle].A.V.K.K.Y.L.N.S.I.L.T.[am]}$$$$V2.0) | 108% | 9.3e-09 M
